Data on one compound can be found in patent US6518312B2, “Immune enhancement” (Active Biotech AB, priority 2000, dated 2003).

This assay has as its system transcription factor AP-1. Put plainly: AP-1-driven luciferase reporter gene assay in transfected Jurkat T cells (Jurkat/AP-1rep). The assay is classed as cell-based. The note with it: Jurkat/AP-1rep cells stimulated 5.5 h at 37° C. with phorbol myristate acetate and ionomycin; FIG. 1. Here is the method: The compounds of formula (I) were assayed for AP-1 enhancement. The compounds of this invention were tested in assays for the modulation of stimulated activity of an AP-1-driven reporter gene in the Jurkat T cell line. The activation of this reporter gene results in luciferase production and the amounts of produced luciferase parallels the level of AP-1 activity. A high level of AP-1 activity is pivotal to e.g. high production of IL-2.
Cells from the Jurkat T cell line were transfected with an AP-1-driven luciferase gene reporter construct (Parra et al., 1997) together with a selection gene vector. Selected clones from the resulting stable AP-1 reporter gene transfectants were used in the assays for AP-1 transcription factor activity. These transfected Jurkat cells (Jurkat/AP-1rep) were grown in RPMI 1640 supplemented with glutamine, hepes, sodium pyruvate, gentamicin, 10% FCS and G418. To evaluate distinct compounds for their capacity to enhance the AP-1 activity, Jurkat/AP-1rep cells were stimulated for 5.5 h in the temperature of 37° C. with phorbol myristate acetate and ionomycin in the absence and presence of test compounds. The 96 well plates containing the cell cultures were then put on ice until harvested. […] AP-1 activity was measured as luminiscence produced by luciferase substrate, which was added to the wells in conjunction with measurement.

`CCN(CC)C(C)CNC(=O)c1ccc(NC(=O)C(C)C)cc1OC` (stereo not shown) [Compound A, N-[(2-Diethylamino)propyl]-4-isobutyrylamino-2-methoxy-benzamide]: the “enhancement of the AP-1 driven reporter gene activity (luciferase luminescence)” value is “enhance the activity of the AP-1 driven reporter in a dose dependent fashion down to μM concentrations”.
